The results in this text go back to patent publication EP0973746B1, “SUBSTITUTED 3-CYANO QUINOLINES” (Wyeth Holdings Corporation, priority 1997, dated 1998).

“And” between values parts separate entries of the source, which are not always exact repeats. Equal values may be shown once.

Usually IC50 stands for the midpoint of a concentration-inhibition curve.

This experiment has as its target recombinant human MEK 1 (MAPKK) and recombinant human ERK2 (MAPK). The experiment can be described thus: Mitogen Activated Protein Kinase (MAPK) assay, two component coupled MEK 1 / ERK2.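 Also: MEK 1-activated ERK2 phosphorylates MBP or Myc peptide with 33P-ATP, filter capture and scintillation counting, inhibitor preincubated with ERK2 30 min at 0 °C, inhibition relative to uninhibited control.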 Format: biochemical. Conditions: separate entries for the same compound = evaluated more than one time.
As to `COc1cc2ncc(C#N)c(Nc3cc(C)c(O)c(C)c3)c2cc1OC` [Example 288, 4-(4-Hydroxy-3,5-dimethyl-phenylamino)-6,7-dimethoxy-quinoline-3-carbinitile], the IC50 is 16 µM.
As for `COc1cc2ncc(C#N)c(Nc3cccc(N=[N+]=[N-])c3)c2cc1OC` [Example 359, 4-(3-Azido-phenylamino)-6,7-dimethoxy-quinoline-3-carbonitrile], the IC50 was above 100 µM.
To `C/C=C/C(=O)Nc1ccc2ncc(C#N)c(Nc3cccc(Br)c3)c2c1` [Example 382, (E)-But-2-enoic Acid [4-(3-Bromophenylamino)-3-cyanoquinolin-6-yl]amide] belongs above 100 µM; to `N#Cc1cnc2ccc(N)cc2c1Nc1cccc(Cl)c1` [Example 136, 6-Amino-4-[(3-chlorophenyl)amino]-3-quinolinecarbonitrile], 70 µM and > 100 µM; to `COc1cc([N+](=O)[O-])cc2c(Nc3ccc(Cl)cc3F)c(C#N)cnc12` [Example 342, 4-(4-chloro-2-fluoro-phenylamino)-8-methoxy-6-nitro-quinoline-3-carbonitrile], above 100 µM.
Consider `C=CC(=O)Nc1ccc2ncc(C#N)c(Nc3cccc(C)c3)c2c1` [Example 349, N-{3-Cyano-4-[(3-methylphenyl)amino]-6-quinolinyl]-2-propenamide], for which the IC50 was above 100 µM.
To `CCCCOc1cc2ncc(C#N)c(Nc3cccc(Br)c3)c2cc1OCCCC` [Example 305, 4-(3-Bromophenylamino)-6,7-di-n-butoxy-3-quinolinecarbonitrile] belongs above 100 µM; to `COCc1cc2ncc(C#N)c(Nc3cccc(Br)c3)c2cc1COC` [Example 325, 4-(3-Bromophenylamino)-6,7-di-methoxymethyl-3-quinolinecarbonitrile], above 100 µM.
`COc1ccc(Nc2c(C#N)cnc3c(OC)cc([N+](=O)[O-])cc23)cc1O` [Example 343, 4-(3-hydroxy-4-methoxy-phenylamino)-8-methoxy-6-nitro-quinoline-3-carbonitrile]: the concentration for half-maximal inhibition (IC50) was found to be 60 µM.
To `COc1cc2ncc(C#N)c(Nc3ccc(C)c(Br)c3)c2cc1OC` [Example 248, 4-(3-Bromo-4-methyl-phenylamino)-6.7-dimethoxy-quinoline-3-carbonitrile] belongs 8 µM.
As for `CSc1cccc(Nc2c(C#N)cnc3ccc([N+](=O)[O-])cc23)c1` [Example 364, 4-[(3-Methylsulfanylphenyl)amino]-6-nitro-3-quinolinecarbonitrile], the figure is above 100 µM; as for `COc1cc2ncc(C#N)c(Nc3ccc(C)cc3)c2cc1OC` [Example 340, 4-(4-methyl-phenylamino)-6,7-dimethoxy-quinoline-3-carbonitrile], above 100 µM; as for `COc1cc2ncc(C#N)c(Nc3ccc(F)c(Cl)c3)c2cc1OCCCN1CCOCC1` [Example 125], above 100 µM.
To `CN(C)c1cccc(Nc2c(C#N)cnc3ccc(N)cc23)c1` [Example 388, 6-Amino-4-(3-dimethylaminophenylamino)quinoline-3-carbonitrile] belongs 25 µM and 50 µM; to `N#Cc1cnc2ccc([N+](=O)[O-])cc2c1Nc1cccc(I)c1` [Example 131, 4-[(3-Iodophenyl)amino]-6-nitro-3-quinolinecarbonitrile], above 100 µM; to `COc1cc2ncc(C#N)c(Nc3cccc(O)c3C)c2cc1OC` [Example 374, 4-(3-Hydroxy-2-methyl-phenylamino)-6,7-dimethoxy-quinoline-3-carbonitrile], < 1 µM and 2 µM.
Take `COc1ccc(Nc2c(C#N)cnc3c(OC)cc(N)cc23)cc1O` [Example 345, 6-Amino-4-(3-hydroxy-4-methoxy-phenylamino)-8-methoxy-quinoline-3-carbonitrile]: the IC50 is above 100 µM.
As for `CC#CC(=O)Nc1ccc2ncc(C#N)c(Nc3cccc(I)c3)c2c1` [Example 348, N-{3-Cyano-4-[(3-iodophenyl)amino]-6-quinolinyl}-2-butynamide], the figure is > 100 µM and 80 µM; as for `COc1cc2ncc(C#N)c(Nc3ccccc3CCO)c2cc1OC` [Example 301, 4-[2-(2-Hydroxy-ethyl)-phenylamino]-6,7-dimethoxy-quinoline-3-carbonitrile], 12 µM; as for `CN(C)c1cccc(Nc2c(C#N)cnc3ccc([N+](=O)[O-])cc23)c1` [Example 386, 4-(3-Dimethylaminophenylamino)-6-nitroquinoline-3-carbonitrile], above 100 µM.
As for `C=CC(=O)Nc1ccc2ncc(C#N)c(Nc3ccc(Sc4ccccc4)c(Cl)c3)c2c1` [Example 351, N-{4-[(3-Chloro-4-thiophenoxyphenyl)amino]-3-cyano-6-quinoliny}-2-propenamide], the figure is 32 µM; as for `CC#CC(=O)Nc1cccc(Nc2c(C#N)cnc3cc(OC)c(OC)cc23)c1` [Example 266, 4-[3-(2-Butynoylamino)phenylamino]1-6,7-dimethoxy-3-quinolinecarbonitrile], above 100 µM.
For the compound `COc1cccc(Nc2c(C#N)cnc3ccc(N)cc23)c1` [Example 141, 6-Amino-4-[(3-methoxyphenyl)amino]-3-quinolinecarbonitrile], the IC50 stood at 35 µM.
To `N#Cc1cnc2ccc([N+](=O)[O-])cc2c1Nc1ccc(Br)cc1` [Example 153, 4-[(4-Bromophenyl)amino]-6-nitro-3-quinolinecarbonitrile] belongs above 100 µM; to `CC(C)c1cccc(Nc2c(C#N)cnc3ccc([N+](=O)[O-])cc23)c1` [Example 357, 4-[(3-Isopropylphenyl)amino]-6-nitro-3-quinolinecarbonitrile], above 100 µM.
As for `N#Cc1cnc2ccc([N+](=O)[O-])cc2c1Nc1cccc(F)c1` [Example 384, 4-(3-Fluorophenylamino)-6-nitroquinoline-3-carbonitrile], the figure is above 100 µM; as for `COc1cc2ncc(C#N)c(Nc3cccc(O)c3)c2cc1OC` [Example 339, 4-(3-Hydroxy-phenylamino)-6,7-dimethoxy-quinoline-3-carbonitrile], 65 µM and 50 µM.
As for `N#Cc1cnc2ccc([N+](=O)[O-])cc2c1Nc1ccc(Cl)c(Cl)c1` [Example 362, 4-[(3.4-dichlorophenyl)amino]-6-nitro-3-quinolinecarbonitrile], the figure is above 100 µM; as for `COc1cc2ncc(C#N)c(Nc3cccc(N(C)C)c3)c2cc1OC` [Example 366, 4-(3-Dimethylamino-phenylamino)-6,7-dimethoxy-quinoline-3-carbonitrile], 4 µM.
On to `C=CC(=O)Nc1ccc2ncc(C#N)c(Nc3cccc(C(C)C)c3)c2c1` [Example 355, N-{3-Cyano-4-[(3-isopropylphenyl)amino]-6-quinolinyl}-2-propenamide], for which the IC50 came out at 45 µM.
To `N#Cc1cnc2ccc([N+](=O)[O-])cc2c1Nc1ccc(F)c(Cl)c1` [Example 150, 4-[(3-chloro-4-fluorophenyl)amino]-6-nitro-3-quinolinecarbonitrile] belongs above 100 µM; to `N#Cc1cnc2ccc([N+](=O)[O-])cc2c1Nc1ccc(Sc2ccccc2)c(Cl)c1` [Example 159, 4-[(3-Chloro-4-thiophenoxyphenyl)amino]-6-nitro-3-quinolinecarbonitrile], above 100 µM.
As for `N#Cc1cnc2ccc([N+](=O)[O-])cc2c1Nc1ccc(Br)c(Br)c1` [Example 377, 4-(3,4-Dibromophenylamino)-6-nitroquinoline-3-carbonitrile], the figure is above 100 µM.
